According to patent publication US20080145313A1, “Compositions and Methods for the Treatment and Prevention of Neoplastic Disorders” (Genesis Research & Development Corporation Limited, priority 2006, published 2008):

Experiments:
A549 cells = test: Growth inhibition of siRNA-transfected A549 cells, SYBR Green I DNA content; format: cell-based, human; settings: A549 cells, 10 nM siRNA, DNA content 96 hours after transfection, transporter gene targets
How it was run: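 A549 cells reverse-transfected with 10 nM Stealth siRNAs via Lipofectamine RNAiMAX, seeded at 5×10^3 cells/cm^2 in RPMI 1640/10% FCS; non-specific siRNA control. DNA content read 96 h post-transfection by SYBR Green I fluorescence (ex 485/em 535 nm) after freeze-thaw and Triton X-100 lysis; mean of three wells.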

[1] = tested on: target transcript mRNA in A549 cells; test: Level of mRNA of target transcript in A549 cells by quantitative RT-PCR (Tables 12 and 13); format: cell-based, human; settings: 24 h post-transfection; for mRNA knockdown of transporter gene target transcript, 0.1 nM: 0.1 nM siRNA; for mRNA knockdown of transporter gene target transcript, 1 nM: 1 nM siRNA; for mRNA knockdown of transporter gene target transcript, 10 nM: 10 nM siRNA
How it was run: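 A549 cells were transfected with siRNA at 0.1, 1.0 and 10 nM. RNA was extracted 24 h later, reverse-transcribed with random primers, and target mRNA quantified by SYBR Green qRT-PCR. Values were normalised to housekeeping genes HPRT and Lamin.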

Substance	Growth Inhibition in A549 cells by 10 nM siRNA (A549 cells)	mRNA knockdown of transporter gene target transcript, 0.1 nM [1]	mRNA knockdown of transporter gene target transcript, 1 nM [1]	mRNA knockdown of transporter gene target transcript, 10 nM [1]
SEQ ID NO: 4930: siRNA targeting SLC25A10 (DIC) (chain 1 TCCTGACGTTGACCAAGTCTGCGGG; chain 2 UCCUGACGUUGACCAAGUCUGCGGG; chemistry not given here; one strand in two spellings)	− (no growth inhibition)	++ (70-90% mRNA knockdown)	++ (70-90% mRNA knockdown)	
SEQ ID NO: 4931: siRNA targeting SLC29A1 (ENT1) (chain 1 TTGAAGATGGCACTGAGAGAGTTCC; chain 2 UUGAAGAUGGCACUGAGAGAGUUCC; chemistry not given here; one strand in two spellings)	++ (inhibits by at least 75%)	++ (70-90% mRNA knockdown)	++ (70-90% mRNA knockdown)	+++ (>90% mRNA knockdown)
SEQ ID NO: 4933: siRNA targeting SLC29A1 (ENT1) (chain 1 TGGAGACTGAAACTCCAGATTCCTC; chain 2 UGGAGACUGAAACUCCAGAUUCCUC; chemistry not given here; one strand in two spellings)	+ (inhibits by at least 50%)	− (<50% mRNA knockdown)	++ (70-90% mRNA knockdown)	++ (70-90% mRNA knockdown)
SEQ ID NO: 4934: siRNA targeting SLC29A2 (ENT2) (chain 1 TGTGAAGACCAACACAAGGCACAGC; chain 2 UGUGAAGACCAACACAAGGCACAGC; chemistry not given here; one strand in two spellings)	− (no growth inhibition)	+ (50-70% mRNA knockdown)	− (<50% mRNA knockdown)	
SEQ ID NO: 4935: siRNA targeting SLC29A2 (ENT2) (chain 1 TAACACACGATGGACATGAGGATGC; chain 2 UAACACACGAUGGACAUGAGGAUGC; chemistry not given here; one strand in two spellings)	− (no growth inhibition)	+ (50-70% mRNA knockdown)	+ (50-70% mRNA knockdown)	
SEQ ID NO: 4936: siRNA targeting SLC29A2 (ENT2) (chain 1 AAGATCCAGGGTCAGAGCTACTTTC; chain 2 AAGAUCCAGGGUCAGAGCUACUUUC; chemistry not given here; one strand in two spellings)	− (no growth inhibition)	− (<50% mRNA knockdown)	− (<50% mRNA knockdown)	
SEQ ID NO: 4937: siRNA targeting ATP2B1 (PMCA1) (chain 1 ATTTATGTAAGCTTGAACGACTGTC; chain 2 AUUUAUGUAAGCUUGAACGACUGUC; chemistry not given here; one strand in two spellings)	− (no growth inhibition)	++ (70-90% mRNA knockdown)	++ (70-90% mRNA knockdown)	
SEQ ID NO: 4938: siRNA targeting ATP2B1 (PMCA1) (chain 1 AAATCTTGTCTATCCTCTCTTGCTC; chain 2 AAAUCUUGUCUAUCCUCUCUUGCUC; chemistry not given here; one strand in two spellings)	− (no growth inhibition)	+ (50-70% mRNA knockdown)	++ (70-90% mRNA knockdown)	
SEQ ID NO: 4939: siRNA targeting ATP2B1 (PMCA1) (chain 1 ATTAACAGTAAGTTGGAACTGAAGG; chain 2 AUUAACAGUAAGUUGGAACUGAAGG; chemistry not given here; one strand in two spellings)	− (no growth inhibition)	+ (50-70% mRNA knockdown)	++ (70-90% mRNA knockdown)	
SEQ ID NO: 4946: siRNA targeting ATP2B4 (PMCA4) (chain 1 AATATCACCAACCACAATCTCAGCC; chain 2 AAUAUCACCAACCACAAUCUCAGCC; chemistry not given here; one strand in two spellings)	− (no growth inhibition)	++ (70-90% mRNA knockdown)	++ (70-90% mRNA knockdown)	
SEQ ID NO: 4947: siRNA targeting ATP2B4 (PMCA4) (chain 1 ATTACGCACAGCCTGATAATCCTGC; chain 2 AUUACGCACAGCCUGAUAAUCCUGC; chemistry not given here; one strand in two spellings)	− (no growth inhibition)	++ (70-90% mRNA knockdown)	++ (70-90% mRNA knockdown)	
SEQ ID NO: 4948: siRNA targeting ATP2B4 (PMCA4) (chain 1 ATCTGAGTCTGGATACGGTTCAGGC; chain 2 AUCUGAGUCUGGAUACGGUUCAGGC; chemistry not given here; one strand in two spellings)	− (no growth inhibition)	− (<50% mRNA knockdown)	++ (70-90% mRNA knockdown)	
SEQ ID NO: 4952: siRNA targeting ATP6V1B2 (chain 1 TACAACAGGACCTCTGTCAATGGGT; chain 2 UACAACAGGACCUCUGUCAAUGGGU; chemistry not given here; one strand in two spellings)	− (no growth inhibition)	− (<50% mRNA knockdown)	+ (50-70% mRNA knockdown)	
SEQ ID NO: 4953: siRNA targeting ATP6V1B2 (chain 1 ATGATATCAAGGAAGTCTTCGGCCA; chain 2 AUGAUAUCAAGGAAGUCUUCGGCCA; chemistry not given here; one strand in two spellings)	++ (inhibits by at least 75%)	− (<50% mRNA knockdown)	+ (50-70% mRNA knockdown)	
SEQ ID NO: 4954: siRNA targeting ATP6V1B2 (chain 1 TTTGGATTTCTTTACCAAACCAGCC; chain 2 UUUGGAUUUCUUUACCAAACCAGCC; chemistry not given here; one strand in two spellings)	− (no growth inhibition)	+ (50-70% mRNA knockdown)	+ (50-70% mRNA knockdown)	
SEQ ID NO: 4955: siRNA targeting ATP6V1C1 (chain 1 TTGATTGGATATTTGGCCATGTCCC; chain 2 UUGAUUGGAUAUUUGGCCAUGUCCC; chemistry not given here; one strand in two spellings)	− (no growth inhibition)	+ (50-70% mRNA knockdown)	++ (70-90% mRNA knockdown)	
SEQ ID NO: 4956: siRNA targeting ATP6V1C1 (chain 1 TAGACTTCTAGTTAGCAAACTTCCT; chain 2 UAGACUUCUAGUUAGCAAACUUCCU; chemistry not given here; one strand in two spellings)	− (no growth inhibition)	++ (70-90% mRNA knockdown)	++ (70-90% mRNA knockdown)	
SEQ ID NO: 4957: siRNA targeting ATP6V1C1 (chain 1 TAGACCTTGGAACTACCATTTCGGC; chain 2 UAGACCUUGGAACUACCAUUUCGGC; chemistry not given here; one strand in two spellings)	− (no growth inhibition)	++ (70-90% mRNA knockdown)	++ (70-90% mRNA knockdown)	
SEQ ID NO: 4958: siRNA targeting ATP6V1E1 (chain 1 AGGAATTGCCTTCTGCACTGCAGCC; chain 2 AGGAAUUGCCUUCUGCACUGCAGCC; chemistry not given here; one strand in two spellings)	− (no growth inhibition)	+ (50-70% mRNA knockdown)		
SEQ ID NO: 4959: siRNA targeting ATP6V1E1 (chain 1 TGGTCAATTTGGACATCAACATCGT; chain 2 UGGUCAAUUUGGACAUCAACAUCGU; chemistry not given here; one strand in two spellings)	− (no growth inhibition)	− (<50% mRNA knockdown)	++ (70-90% mRNA knockdown)	
SEQ ID NO: 4960: siRNA targeting ATP6V1E1 (chain 1 TGGCATTTGCACCAAACAAGGCTCC; chain 2 UGGCAUUUGCACCAAACAAGGCUCC; chemistry not given here; one strand in two spellings)	− (no growth inhibition)	− (<50% mRNA knockdown)	+ (50-70% mRNA knockdown)	
